From PubChem BioAssay AID1845228
Values joined by “and” are separate entries in the source; they are usually repeats but may differ in a detail not shown here. Equal values may be shown once. Numbered stars: 1 amine (or outer) side, 2 acyl side, 3 side chain; on linkers, the order of the positions; unused ones are H or OH. Bridge positions count the residues as written; N and C are the ends. Square brackets hold non-standard residues; d marks the D form. Peptide text beside a SMILES is read from it. I, II: the chains in the order shown. Actinocin(9to1) = Cc1c2oc3c(C)ccc(C(=O)[*:1])c3nc-2c(C(=O)[*:2])c(N)c1=O; NMeV = CN[C@H](C(=O)O)C(C)C; Sar = CNCC(=O)O

Conditions: pampa; 60.0 min; 50.0 µM

Compound | Papp
CNCCC=C1c2ccccc2CCc2ccccc21 | 253 ×10⁻⁶ cm/s
Clc1ccc(CN[C@H]2CCN(c3ncc(Br)cn3)C2)c(Cl)c1 | > 300 ×10⁻⁶ cm/s
O=C(NC1CCC(O)CC1)c1ccc(-c2ncc3cnc(-c4ccccc4)cn23)cc1 (stereo unspecified) | 35 ×10⁻⁶ cm/s
CC(NC(CCc1ccccc1)C(=O)O)C(=O)N1C(=O)N(C)CC1C(=O)O (stereo unspecified) | < 1 ×10⁻⁶ cm/s
Cc1cccc(-n2nnnc2S(C)(=O)=O)c1 | 28.3 ×10⁻⁶ cm/s
CNc1ncc(-c2ccc3c(=O)c(C(=O)O)cn(C4CC4)c3c2C)cc1C | 3 ×10⁻⁶ cm/s
N=c1c2c(-c3ccccc3)cn(Cc3ccccc3)c2ncn1CCCCCO | 89 ×10⁻⁶ cm/s
CCc1ccc(C2C(C(=O)Nc3ccccc3OC)=C(C)Nc3c(C(=O)Nc4ccc(C)cc4)cnn32)cc1 (stereo unspecified) | 26 ×10⁻⁶ cm/s
COc1ccc2c(c[n+](C)c3c4cc5c(cc4ccc23)OCO5)c1OC | 121 ×10⁻⁶ cm/s
O=C(Nc1ccc2[nH]c(=O)oc2c1)C(=O)N1CCC(Cc2ccc(F)cc2)CC1 | 207 ×10⁻⁶ cm/s
CC(Cc1ccc2c(c1)OCO2)NCC(O)c1ccc(O)c(O)c1 (stereo unspecified) | 6 ×10⁻⁶ cm/s
Cn1nnnc1Sc1ncnc2scc(-c3cccc(Cl)c3)c12 | 134 ×10⁻⁶ cm/s
O=C(NCCc1cnc[nH]1)c1ccc(-c2ncc3cnc(-c4cccc(F)c4)cn23)cc1 | < 1 ×10⁻⁶ cm/s
c1ccc(Nc2nc3c(s2)CCCc2[nH]ncc2-3)nc1 | 194 ×10⁻⁶ cm/s
CNCCCOc1cc(F)c(-c2c(Cl)nc3ncnn3c2N[C@@H](C)C(F)(F)F)c(F)c1 | 26 ×10⁻⁶ cm/s
CC(C)CN(CC(=O)N(CCCN1CCCC1=O)CC(N)=O)C(=O)CNCCc1ccccc1F | < 1 ×10⁻⁶ cm/s
C[C@@H](O)[C@H]1C(=O)N2C(C(=O)O)=C([C@H]3CCCO3)S[C@H]12 | < 1 ×10⁻⁶ cm/s
Oc1ccc2nc(CN3CCC(Cc4ccccc4F)CC3)[nH]c2c1 | 107 ×10⁻⁶ cm/s
Cn1nnnc1Sc1ncnc2scc(-c3cccs3)c12 | 244 ×10⁻⁶ cm/s
CC[C@@H]1CN(C(=O)NCC(F)(F)F)C[C@@H]1c1cnc2cnc3[nH]ccc3n12 | 2 ×10⁻⁶ cm/s
Cc1c2oc3c(C)ccc(C(=O)N[C@@H]4C(=O)N[C@H](C(C)C)C(=O)N5CCC[C@H]5C(=O)N(C)CC(=O)N(C)[C@@H](C(C)C)C(=O)O[C@@H]4C)c3nc-2c(C(=O)N[C@@H]2C(=O)N[C@H](C(C)C)C(=O)N3CCC[C@H]3C(=O)N(C)CC(=O)N(C)[C@@H](C(C)C)C(=O)O[C@@H]2C)c(N)c1=O (I: T[dV]P[Sar][NMeV] / II: T[dV]P[Sar][NMeV]; ester I:1-I:C, II:1-II:C; linker I:N-II:N via Actinocin(9to1)) | 6 ×10⁻⁶ cm/s and 13 ×10⁻⁶ cm/s
C=CC1=C(C(=O)O)N2C(=O)[C@@H](NC(=O)/C(=N\O)c3csc(N)n3)[C@H]2SC1 | < 1 ×10⁻⁶ cm/s
N=c1c2c(-c3ccccc3)cn(Cc3ccc(Br)cc3)c2ncn1CCCCO | 208 ×10⁻⁶ cm/s

Compound | Papp
COc1ccc(N(C)c2nc(C)nc3ccccc23)cc1 | 220 ×10⁻⁶ cm/s
COC(Cn1cnc2c(c(-c3ccccc3)c(-c3ccccc3)n2CCc2ccccc2)c1=N)OC | 236 ×10⁻⁶ cm/s
CO/N=C(\C(=O)N[C@@H]1C(=O)N2C(C(=O)O)=C(CSc3nc(C)c(CC(=O)O)s3)CS[C@H]12)c1csc(N)n1 | < 1 ×10⁻⁶ cm/s
CC(=O)NCCNC(=O)c1ccc(-c2ncc3cnc(-c4cccc(F)c4)cn23)cc1 | 11 ×10⁻⁶ cm/s
COc1cccc(-c2csc3ncnc(Sc4nnnn4C)c23)c1 | 219 ×10⁻⁶ cm/s
N#Cc1c[nH]c2c(C(=O)N3CCN(CCc4ccc(F)cc4)CC3)cccc12 | 121 ×10⁻⁶ cm/s
CCOC(=O)c1cc(=O)c2c(OCC(COc3cccc4oc(C(=O)OCC)cc(=O)c34)OC(=O)[C@@H](N)CCCCN)cccc2o1 | < 1 ×10⁻⁶ cm/s
CC(C)C[C@H]1C(=O)O[C@H](Cc2ccc(N3CCOCC3)cc2)C(=O)N(C)[C@@H](CC(C)C)C(=O)O[C@H](C)C(=O)N(C)[C@@H](CC(C)C)C(=O)O[C@H](Cc2ccc(N3CCOCC3)cc2)C(=O)N(C)[C@@H](CC(C)C)C(=O)O[C@H](C)C(=O)N1C | < 1 ×10⁻⁶ cm/s
Cn1cnc2c(F)c(Nc3ccc(Br)cc3F)c(C(=O)NOCCO)cc21 | 19.3 ×10⁻⁶ cm/s
CC(C)c1cc(-c2n[nH]c(=O)n2-c2ccc3c(ccn3C)c2)c(O)cc1O | 79.5 ×10⁻⁶ cm/s
CC1(C)S[C@@H]2[C@H](NC(=O)C3(N)CCCCC3)C(=O)N2[C@H]1C(=O)O | 54 ×10⁻⁶ cm/s
O=C(NCCCN1CCCC1=O)c1ccc(-c2ncc3cnc(-c4ccccc4)cn23)cc1 | 31 ×10⁻⁶ cm/s
C[C@@]12CCCCC[C@@H](Cc3ccc(O)cc31)[C@H]2N | 74 ×10⁻⁶ cm/s
CC1NC(C(=O)O)Cc2c1[nH]c1ccccc21 (stereo unspecified) | < 1 ×10⁻⁶ cm/s
CN1N=C2CCN(C(=O)[C@H](COCc3ccccc3)NC(=O)C(C)(C)N)C[C@]2(Cc2ccccc2)C1=O | 15 ×10⁻⁶ cm/s
COc1cc(C(C)C)c(Oc2cnc(NC(CO)CO)nc2N)cc1I | 103 ×10⁻⁶ cm/s
Cc1cccc(NC(=O)c2ccc(C(F)(F)F)cc2C(=O)O)n1 | < 1 ×10⁻⁶ cm/s
CCOC(CCCn1cnc2c(c(-c3ccccc3)c(-c3ccccc3)n2Cc2ccccc2)c1=N)OCC | 228 ×10⁻⁶ cm/s
Cc1cc2c(C(N)=O)cccc2n1-c1nc2c(c(NCc3ccccc3)n1)COCC2 | 90 ×10⁻⁶ cm/s
O=C(c1ccc(-c2ncc3cnc(-c4ccccc4)cn23)cc1)N1CCS(=O)(=O)CC1 | 20 ×10⁻⁶ cm/s
Cc1cccc(C#Cc2cc(F)cc(C#N)c2)n1 | 209 ×10⁻⁶ cm/s
O=C(O)c1cc2ccccc2c(Cc2c(O)c(C(=O)O)cc3ccccc23)c1O | 3 ×10⁻⁶ cm/s
CC(/C=C/[C@@H]1C[C@]1(C)c1ccc2c(c1)C(C)(C)CCC2(C)C)=C\C(=O)O | 63 ×10⁻⁶ cm/s
